Patent US8946249B2, “Compound, certain novel forms thereof, pharmaceutical compositions thereof and methods for preparation and use” (Hutchinson Medipharma Limited, priority 2009, dated 2015)
pIC50: −log10 of the molar value.

What was measured:
[1] = target: T1, recombinant human KDR catalytic domain (Homo sapiens, UniProt P35968); assay: KDR kinase inhibition, Z'-LYTE assay kit; format: biochemical; conditions: 10 μM ATP, 1 μM Tyr1 peptide, 25° C., 1 hour
T1 construct: 300 ng/mL of recombinant human KDR catalytic domain
T1 sequence (P35968 834-1162 limits assumed): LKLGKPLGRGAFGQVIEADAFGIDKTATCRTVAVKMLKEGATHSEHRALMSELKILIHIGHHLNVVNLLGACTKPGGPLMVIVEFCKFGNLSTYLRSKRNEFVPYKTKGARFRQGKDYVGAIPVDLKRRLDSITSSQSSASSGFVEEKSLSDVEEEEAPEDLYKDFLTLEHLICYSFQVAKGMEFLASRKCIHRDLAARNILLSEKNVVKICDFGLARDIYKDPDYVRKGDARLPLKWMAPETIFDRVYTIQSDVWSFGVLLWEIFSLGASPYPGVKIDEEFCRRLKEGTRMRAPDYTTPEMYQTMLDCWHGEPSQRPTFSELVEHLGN
Method: The KDR kinase inhibition activity of the above three compounds is tested using the Z-Lyte assay kit.
Z′-LYTE™ Tyr1 peptide (Invitrogen, Cat. PV3190) is used to test the KDR kinase inhibitory activity of the above three compounds. The testing system contains 300 ng/mL of recombinant human KDR catalytic domain, 10 μM of ATP, 1 μM of substrate peptide, and a test compound at a series of different concentrations in 384-well plate (Thermo Labsystems, Cat. 7805); total volume is 10 μL. The enzymatic inhibition proceeds at room temperature (25° C.) for 1 hour on the shaker, followed by addition of 5 μL of enhancer and incubation for an additional 1 hour at room temperature on the shaker. 5 μL of stop solution is added to stop the reaction. The KDR kinase inhibition activity of a test compound is calculated based on the method recommended by the manufacturer. The IC50 values of the KDR kinase inhibition activity are calculated using XLfit software.
(1) Dilution of the test compounds: each of the above three compounds is dissolved in DMSO to prepare a […] stock solution and stored in −20° C. freezer. The stock solution is diluted to the four times concentration of the desired test concentration with 8% DMSO before use. […]
(7) Kinase inhibition: Add the following components in turn in a 384-well plate. […] Seal the plate with aluminum foil and allow the reaction to proceed at room temperature (25° C.) for 1 hour on the shaker (250 rpm). • e) Dilution of enhancer solution (right before use): according to the recommendation of manufacturer, dilute enhancer stock with development dilution buffer 128-fold. • f) Fluorescence enhancement: add 5 μL/well of the diluted enhancer solution in all wells, briefly spin at 1000 rpm, re-seal the plate and let the reaction proceed at room temperature for an additional hour on the shaker. • g) Add 5 μL/well of stop solution to all wells, briefly spin at 1000 rpm. Mix at room temperature for 2 minutes on the shaker, and read florescence signals on Victor3 (Perkin Elmer) at excitation 400 nm, emission 445 nm/530 nm. […]

[2] = target: T2, FGFR1 kinase (Homo sapiens, UniProt P11362); assay: FGFR1 kinase activity assay, Transcreener FP; format: biochemical; conditions: 10 μM ATP, 60 minutes, room temperature
T2 construct: purchased Invitrogen PV3146
T2 sequence (P11362 22-822): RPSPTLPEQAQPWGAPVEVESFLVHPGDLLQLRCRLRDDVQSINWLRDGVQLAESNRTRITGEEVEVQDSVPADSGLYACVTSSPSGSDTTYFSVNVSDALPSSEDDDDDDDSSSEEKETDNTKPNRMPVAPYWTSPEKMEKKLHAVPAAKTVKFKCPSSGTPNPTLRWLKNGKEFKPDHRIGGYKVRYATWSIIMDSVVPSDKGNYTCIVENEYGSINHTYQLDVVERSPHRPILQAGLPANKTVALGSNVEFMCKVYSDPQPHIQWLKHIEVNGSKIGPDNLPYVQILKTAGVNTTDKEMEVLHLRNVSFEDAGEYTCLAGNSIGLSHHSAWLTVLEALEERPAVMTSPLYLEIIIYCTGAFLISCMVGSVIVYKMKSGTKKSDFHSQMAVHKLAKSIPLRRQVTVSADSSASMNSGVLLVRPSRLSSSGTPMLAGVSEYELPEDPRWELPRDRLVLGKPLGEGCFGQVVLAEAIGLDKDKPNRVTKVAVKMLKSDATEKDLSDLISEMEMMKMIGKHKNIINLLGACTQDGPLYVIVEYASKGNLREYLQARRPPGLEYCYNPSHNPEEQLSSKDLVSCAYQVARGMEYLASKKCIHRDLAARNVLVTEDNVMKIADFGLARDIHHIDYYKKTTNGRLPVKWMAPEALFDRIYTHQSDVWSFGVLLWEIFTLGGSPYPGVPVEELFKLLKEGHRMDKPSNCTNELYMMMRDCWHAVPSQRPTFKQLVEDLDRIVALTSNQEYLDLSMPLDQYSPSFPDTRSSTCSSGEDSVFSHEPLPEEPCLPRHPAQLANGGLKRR
Method: The Transcreener FP technology of Bellbrook Labs is used in the FGFR1 kinase activity assay. The kinase reaction was done in 96-well half area black plate (Greiner, Cat. 675076). In each well, were added 5 μL of test compounds in 5% DMSO, 10 μL of 0.3 ng/μL FGFR1 kinase (Invitrogen, PV3146) diluted in assay buffer. The reaction was started by the addition of 10 of 62.5 ng/μL poly (Glu:Tyr, 4:1) substrate (Sigma, P0275) and 25 μmol/L of ATP mixture, and incubated for 60 minutes at room temperature. The final conditions for kinase assay were: 10 μM of ATP, 0.12 ng/μL of FGFR1 kinase, 25 ng/μL of substrate, 53.6 mmol/L of HEPES (pH 7.5), 21.6 mmol/L of MgCl2, 0.536 mmol/L of MnCl2, 1 mmol/L of DTT and 0.01% Triton X-100, 1% DMSO.
At the same time, an ADP standard curve was performed. The standard curve mimics a kinase reaction in the absence of test compound, kinase, and lipid substrate. The standard curve contained 12 concentration points, and total [ATP+ADP] ranged from 10 μM to 0.01 μM. […]
After reacting for 60 minutes at room temperature, 25 μL of transcreener Kinase Kit reagent—ADP Detection Mix—(Bellbrook Labs) was added and reacted for an additional 1.0 hours. The plates were then read in Tecan Infinite F500 at an excitation of 610 nm and an emission of 670 nm. […] The inhibition of test compound on ADP production was calculated based on ADP concentration calculated from standard curve. […]

[3] = target: T3, hERG channels (Homo sapiens, UniProt Q12809); assay: hERG whole-cell patch clamp in CHO cells stably transfected with hERG cDNA; format: cell-based; conditions: CHO cells expressing hERG, tail current; read-out: hERG current inhibition IC50
T3 construct: expressed in transfected cells; host or cells: CHO
T3 sequence (Q12809 whole entry): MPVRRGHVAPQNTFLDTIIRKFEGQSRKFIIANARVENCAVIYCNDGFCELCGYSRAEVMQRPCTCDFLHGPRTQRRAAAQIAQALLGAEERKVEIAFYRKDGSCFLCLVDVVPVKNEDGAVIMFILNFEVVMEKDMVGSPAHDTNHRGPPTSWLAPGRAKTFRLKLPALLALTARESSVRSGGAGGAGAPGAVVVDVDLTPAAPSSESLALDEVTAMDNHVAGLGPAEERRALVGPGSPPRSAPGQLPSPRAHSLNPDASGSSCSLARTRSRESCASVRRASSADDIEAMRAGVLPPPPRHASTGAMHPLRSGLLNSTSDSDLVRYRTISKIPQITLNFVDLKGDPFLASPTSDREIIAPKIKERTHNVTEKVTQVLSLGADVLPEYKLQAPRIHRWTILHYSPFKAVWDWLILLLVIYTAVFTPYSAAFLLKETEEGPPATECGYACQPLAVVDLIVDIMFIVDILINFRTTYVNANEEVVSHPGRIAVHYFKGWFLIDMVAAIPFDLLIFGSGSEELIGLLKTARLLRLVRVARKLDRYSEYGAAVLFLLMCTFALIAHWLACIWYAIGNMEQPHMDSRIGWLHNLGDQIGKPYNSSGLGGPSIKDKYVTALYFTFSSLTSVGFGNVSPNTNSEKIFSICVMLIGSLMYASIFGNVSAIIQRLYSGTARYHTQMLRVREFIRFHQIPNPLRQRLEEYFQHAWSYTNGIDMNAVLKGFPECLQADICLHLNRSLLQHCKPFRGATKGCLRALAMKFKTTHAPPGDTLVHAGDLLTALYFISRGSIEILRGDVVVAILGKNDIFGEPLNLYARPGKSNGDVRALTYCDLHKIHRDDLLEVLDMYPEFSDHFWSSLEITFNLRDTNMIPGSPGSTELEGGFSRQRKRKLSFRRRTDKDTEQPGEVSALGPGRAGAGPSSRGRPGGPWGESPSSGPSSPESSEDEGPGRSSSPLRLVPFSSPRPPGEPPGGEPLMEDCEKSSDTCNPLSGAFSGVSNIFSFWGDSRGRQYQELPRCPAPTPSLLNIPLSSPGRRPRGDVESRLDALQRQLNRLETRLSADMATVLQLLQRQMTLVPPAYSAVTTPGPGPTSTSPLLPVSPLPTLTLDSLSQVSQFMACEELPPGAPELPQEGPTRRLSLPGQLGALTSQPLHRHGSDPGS
Method: A CHO cell line stably transfected with hERG cDNA and expressing hERG channels was used for the study. Cells were cultured in a medium comprising:
Before testing, cells were harvested using an Accumax (Innovative Cell Technologies).
Whole-cell recording was performed using a 700B (Axon Instruments). The cells were voltage clamped at a holding potential of −80 mV. The hERG current was activated by depolarizing at +20 mV for 2 sec, after which the current was taken back to −50 mV for 2 sec to remove the inactivation and observe the deactivating tail current. The first step at −50 mV was used as a baseline for measuring the tail current peak amplitude.
Test compound was prepared as a 10 mM DMSO stock solution in a glass vial. The stock solution was mixed vigorously for 10 minute at room temperature. The stock solution was diluted in a glass vial using External Solution; the dilution was prepared no longer than 30 minutes before use. Equal amounts of DMSO (0.1%) were present at final dilution.
After achieving whole-cell configuration, the cells were monitored for 90 sec to assess stability and washed with external solution for 66 sec. The voltage protocol described above was then applied to the cells every 20 sec throughout the whole procedure. […]
Data were analyzed using Clampfit (both by Axon Instruments) and Origin 7 (Originlab Corporation).

[4] = Pharmacokinetics study in mice; format: in vivo; conditions: male, ICR; mouse plasma, single oral dose 10 mg/kg
Method: Experimental Method: The pharmacokinetics of the test compounds were studied with male ICR mice (n=6 for each group, weight 20˜30 g) after a single intraveneous (i.v.) and oral (p.o.) dosing at 2.5 and 10 mg/kg, respectively. For i.v. dosing formulation, the test compound was dissolved in DMSO (0.25%)-solutol (10%)-ethanol (10%)-physiological saline (79.75%) at the concentration of 0.25 mg/mL. And the p.o. dosing formulation (1 mg/mL) was prepared with 0.5% CMC-Na. After i.v. or p.o. dosing, blood samples were collected via the ophthalmic vein at 0 (pre-dose), 5, 15, 30 min and 1, 1.5, 2, 4, 8, 24 h, anti-coagulated with heparin-Na. After centrifugation, plasma samples were separated and protein precipitated with acetonitrile (containing internal standard). The concentration of the testing compounds in these plasma samples were then determined by LC/MS/MS.

[5] = Hygroscopicity, saturated salt solution method; format: physicochemical; conditions: 10 days, 25° C.; for Stability under the testing humidity conditions: crystalline form unchanged; for Hygroscopicity (in words): saturated NaCl solution
Method: The desiccator was closed and left standing for 10 days at 25° C. Then the samples were taken out and weighed again, and the weight gain was calculated.

[6] = Thermodynamic stability comparison, slurry of Form I and Form II mixture; format: physicochemical; conditions: 1 g each of Form I and Form II in 10 mL methanol, 60° C., 20 h, powder X-ray diffraction
From the text: Then the suspension was filtered with a Buchner funnel and paper disk, and dried under a vacuum oven.

| pIC50 [1] | SMILES | pIC50 [2] | pIC50 [3] | AUC [4] [ng·h/mL] | Cmax [4] [ng/mL] | Stability under the testing humidity conditions [5] | Hygroscopicity (in words) ([5]; listed as Form I sample) | Thermodynamic stability, form after slurry [6] | Hygroscopicity (in words) [5] |
| --- | --- | --- | --- | --- | --- | --- | --- | --- | --- |
| – | Cc1cc2cc(Oc3ccnc(Nc4cccc(CS(=O)(=O)NCCN(C)C)c4)n3)ccc2[nH]1 [Form I, Form I N-(2-(dimethylamino)ethyl)-1-(3-((4-((2-methyl-1H-indol-5-yl)oxy)pyrimidin-2-yl)amino)phenyl)-methanesulfonamide] | – | – | – | – | stable | non-hygroscopic | physically and/or thermodynamically more stable than Form II | – |
| 7.42 | CNS(=O)(=O)Cc1cccc(Nc2nccc(Oc3ccc4[nH]c(C)cc4c3)n2)c1 [Compound B, N-methyl-1-(3-((4-((2-methyl-1H-indol-5-yl)oxy)pyrimidin-2-yl)amino)phenyl)methanesulfonamide, reference compound] | – | – | 26 | 20 | – | – | – | – |
| – | Cc1cc2cc(Oc3ccnc(Nc4cccc(CS(=O)(=O)NCCN(C)C)c4)n3)ccc2[nH]1 [Form II, Form II N-(2-(dimethylamino)ethyl)-1-(3-((4-((2-methyl-1H-indol-5-yl)oxy)pyrimidin-2-yl)amino)phenyl)methanesulfonamide] | – | – | – | – | stable | – | transformed to the Form I | slightly hygroscopic |
| 6.95 | Cc1cc2c(F)c(Nc3ccnc(Nc4cccc(OCCN5CCOCC5)c4)n3)ccc2[nH]1 [compound of Formula C, N^4-(4-fluoro-2-methyl-1H-indol-5-yl)-N^2-(3-(2-morpholinoethoxy)phenyl)pyrimidine-2,4-diamine, reference compound] | – | 6.26 | – | – | – | – | – | – |

| SMILES | pIC50 [1] | pIC50 [2] | pIC50 [3] | AUC [4] [ng·h/mL] | Cmax [4] [ng/mL] | Stability under the testing humidity conditions [5] | Hygroscopicity (in words) ([5]; listed as Form I sample) | Thermodynamic stability, form after slurry [6] | Hygroscopicity (in words) [5] |
| --- | --- | --- | --- | --- | --- | --- | --- | --- | --- |
| Cc1cc2cc(Oc3ccnc(Nc4cccc(CS(=O)(=O)NCCN(C)C)c4)n3)ccc2[nH]1 [Compound A, N-(2-(dimethylamino)ethyl)-1-(3-((4-((2-methyl-1H-indol-5-yl)oxy)pyrimidin-2-yl)amino)phenyl)-methanesulfonamide] | 7.68 | 7.28 | 5.17 | 397 | 138 | – | – | – | – |
